Experimental data published in US8404665B2, “In vivo use of glutathione S-transferase activated nitric oxide donors” (University of Utah Research Foundation, priority 2002, dated 2013).
Read-outs that look alike come from different tables or passages of the source.

Columns and labels:
[1] = test system: HL-60 cells; assay: HL-60 leukemia cell growth (Coulter counter or MTT assay); type: cell-based, human; details: for cell growth, % of untreated control cells: HL-60, MTT, three days
Procedure: Cell Lines and Culture Conditions. HL-60, DLD1, and U937 cells were obtained from ATCC (Rockville, Md.). Meth A cells were from Dr. Wolfram Samlowski (University of Utah, Salt Lake City, Utah). The PPC-1 cell line was provided by Dr. Graeme Bolger (University of Alabama, Birmingham, Ala.). For the cell growth and apoptosis experiments, cells were cultured at a density of 150,000 cells/ml in RPMI-1640 with 10% fetal bovine serum at 37° C. in a 5% CO2 humidified atmosphere. Agents were added at the indicated concentrations 24 h after culture initiation. At the indicated time intervals, cells were harvested and washed twice in phosphate buffered saline (PBS) prior to processing for analysis of growth, differentiation, and apoptosis.
(§1) Cell Growth, Differentiation and Apoptosis Assays. The number of viable cells was determined using the MTT assay according to the manufacturer's protocol (Promega, Madison, Wis.) or using a Coulter counter. Briefly, a MTT assay is an analytical technique that uses the dye dimethylthiazolyl-diphenyltetrazolium (MTT) which turns from yellow to brownish-purple as it is reduced in the mitochondria of living cells. The assay is useful in calorimetric quantitation of cell viability and proliferation. In contrast, cell differentiation was evaluated using Wright and Non-Specific Esterase (NSE) staining of cells collected on microscope slides by cytospin as previously described (Magrinat, G. et al. (1992) Blood 80: 1880-1884). Apoptosis was assayed by flow cytometry and by determining DNA fragmentation using agarose gel electrophoresis as previously described (Shami, P. J. et al. (1998) Leukemia 12: 1461-1466). For the flow cytometry assay, we used the propidium iodide staining method of Nicoletti et al. (Nicoletti, I. et al. (1991) J. Immunol. Methods 139: 271-279).
For the initial screen, HL60 cells were cultured in triplicate in RPMI1640/10% FBS under standard conditions. Compounds were added to the cultures at the following concentrations: 0, 0.1, 1, 10, and 100 micromolar (uM). Three days after addition of the compounds cell growth was determined either using a Coulter counter or using the MTT assay.
The antiproliferative effects in the human AML (Acute Myeloid Leukemia) cell lines, HL-60 (myeloid leukemia) and U937 (monoblastic leukemia) cells were treated with JS-K for a period of 3 days, upon which cell growth was evaluated using a Coulter counter (CITY, STATE). JS-K was added to HL-60 cells at 0, 0.25, 0.5, 0.75, and 1.0 μM concentrations. […] Similar results were obtained in U937 cells under similar conditions.

[2] = test system: HL-60 cells; assay: Subcutaneous HL-60 tumor implants in NOD/SCID mice; type: in vivo
Procedure: To study the in vivo antineoplastic potency of JS-K, NOD/SCID mice were injected in the flanks subcutaneously with HL-60 or PPC-1 cells (2.5×10^6 cells per flank). When subcutaneous tumors were palpable, treatment with JS-K or an equal volume of vehicle (20% dimethyl sulfoxide in PBS) was started using the indicated doses and route. Tumor size was measured daily or every other day using a Vernier caliper. Tumor volume was calculated using the formula: width×length×[(width+length)/2]×0.5236. Fifteen to 20 days after tumor cell implantation, animals were sacrificed by CO2 inhalation and tumors were collected for histochemical analysis.
Histological Analysis of Tumors. After sacrifice, subcutaneous tumors were dissected out, fixed in 10% formaldehyde and imbedded in paraffin. Four-um sections were cut and stained with Hematoxylin and Eosin.
To determine the in vivo therapeutic efficacy of JS-K, NOD/SCID mice were injected subcutaneously with 5×10^6 HL-60 cells in the flanks. When tumors were measurable (4 to 5 days after leukemia cell inoculation), the mice were divided into 2 groups that received either vehicle or JS-K at a dose of 4 μmol/kg administered intravenously 3 times per week. After seventeen days from the leukemia cell inoculation there appeared to be a significant difference in tumor volume between vehicle and JS-K treated animals: tumor volume was 9.51±1.22 and 4.15±1.06 cm^3 in vehicle and JS-K treated animals, respectively.

[3] = Hydrolysis of JS-K; type: physicochemical
Procedure: For increased JS-K consumption rate at an initial concentration of 50 uM in 0.1 M phosphate (pH=7.4) at 37° C. as a function of increasing GSH concentration. The value of k1 obtained from the intercept appeared to be in statistical agreement with the rate constant for JS-K hydrolysis (1×10^−6 s^−1) measured separately in the absence of GSH. The small amount of the hydrolysis product (2,4-dinitrophenol) (data not shown) was apparently formed in the dimethyl sulfoxide stock solution, which in this case had been stored in the refrigerator with intermittent use during several weeks.

[4] = test system: HL-60 cells; assay: HL-60 cell differentiation (Wright and non-specific esterase staining); type: cell-based, human; details: 0.5 uM, 3-5 days
Procedure: as §1
HL-60 cells were treated with JS-K at a concentration of 0.5 uM for 3-5 days. […] JS-K appears to induce cell differentiation.

[5] = test system: rabbit thoracic aorta; assay: Rabbit aortic rings bioassay of NO activity (vasorelaxation)
From the text: Preparation of Rabbit Aortic Rings for Bioassay of NO Activity. The preparation of rabbit aortic rings was similar to that described previously (Jia L and Furchgott R F (1993) J Pharmnacol Exp Ther 267: 371-378.), and the animal protocol was approved by the Institutional Animal Care and Use Committee. Briefly, a male New Zealand rabbit was anesthetized by an intravenous injection of sodium pentobarbital into a marginal ear vein. The descending thoracic aorta was quickly removed. The aortic rings (2 mm in length) were prepared and mounted in 20 ml of Krebs' solution (bubbled with 95% O2/5% CO2, 37° C.) in organ chambers. […] Rings were allowed to equilibrate for at least 90 min before experiments were initiated. Basal tension was maintained at approximately 3 g. To allow studies on relaxation, each ring was precontracted submaximally by addition of 50-100 nM phenylephine to the bathing solution. When the contraction had reached a steady state, JS-K was added successively to the bathing solution until the maximal relaxation was obtained. Hb and ODQ were also added to the bathing solution to investigate the mechanisms of action of JS-K.
The ability of JS-K to function as a NO donor was examined in the rabbit thoracic aorta model. […]

[6] = 4 μmol/kg i.v. 3 times per week

For `CCOC(=O)N1CCN(/[N+]([O-])=N/Oc2ccc([N+](=O)[O-])cc2[N+](=O)[O-])CC1` [JS-K, O^2-(2,4-dinitrophenyl) 1-[(4-ethoxycarbonyl)piperazin-1-yl]diazen-1-ium-1,2-diolate], the IC50 ([1]; HL-60, 3 days, Coulter counter, mean of 3 studies, read-out: IC50, cell growth) was 0.22 µM, the “cell growth, % of untreated control cells” value ([1]; 0.75 uM) was 28+/−0.79% and the “cell growth, % of untreated control cells” value ([1]; 0.75 uM JS-K together with 50 uM C-VAD-FMK) was 79+/−2.4%. The IC50 ([1]; HL-60, initial screen, at three days, read-out: 50% growth inhibitory concentration (IC50)) was 0.22 µM, the “JS-K-induced growth inhibition after NAC pretreatment” value ([1]; HL-60, pretreatment 2-6 h with NAC) was “prevented the JS-K-induced growth inhibition” and the “JS-K-induced growth inhibition after BSO pretreatment” value ([1]; HL-60, pretreatment with BSO for 2-6 h) was “did not appear to prevent the JS-K-induced growth inhibition”. The “JS-K-induced growth inhibition after BSO pretreatment” value ([1]; HL-60, pretreatment with BSO for 24 h) was “appeared to enhance the effects”, the IC50 ([1]; HL-60 assay system, comparison with chemotherapeutic agents, read-out: IC50, growth inhibition) was 0.5 µM and the “leukemia implant growth in vivo” value [2, 6] was “significant delay in leukemia implant growth in vivo”. For the same compound, the “tumor histology (necrosis) at experiment termination” value [2, 6] was “extensive necrosis”, the tumor volume ([2]; 4 μmol/kg i.v. 3 times per week, seventeen days from inoculation, vehicle 9.51±1.22) was 4.15±1.06 cm^3 and the “cell necrosis in tumors (histologic analysis)” value ([2]; controls ˜10%) was “more than 50%”. For the same compound, the “reduction in tumor volume” value ([2]; sixteen days after starting therapy, versus control) was “more than 50%”, the average tumor volume ([2]; sixteen days after starting therapy, control 8.34±0.72, P=0.039) was 3.13±1.14 cm^3 and the resistance to hydrolysis ([3]; 0.1 M phosphate pH 7.4, 37° C.) was “resistant to simple hydrolysis”. The “rate constant for JS-K hydrolysis” value ([3]; measured separately in the absence of GSH, pH 7.4, 37° C.) was 1e-06 s⁻¹, the hydrolysis ([3]; pH=12) was “much more facile” and the “morphology by Wright stain” value [4] was “morphologic changes consistent with a monocytic phenotype”. The “percentage of HL-60 cells expressing NSE” value ([4]; from 1) was 40%, the reversibility of vasoactivity ([5]; Hb and ODQ added) was “reversible in the presence of a NO scavenger and a specific inhibitor of the NO-sGC-cGMP pathway” and the “concentration at which vasorelaxation reached a maximum” value ([5]; rings precontracted with phenylephine) was 100 nM.
